Key:
[1] = Binding affinity to apoferritin by isothermal titration calorimetry
[2] = Agonist activity at GABAA assessed as enhancement of channel current; format: functional

SMILES	pEC50 [1]	Kd [2]
CCc1cccc(CC)c1N=C=S	4.8	–
Cc1cccc(C(C)(C)C)c1O	6.3	–
CCc1cccc(CC)c1Br	4.7	–
Cc1cccc(C)c1O	3.9	360 nM
CCC(C)c1ccc(O)c(C(C)CC)c1 (centres undefined)	4.5	–
CCc1cccc(CC)c1N=C=O	4.6	–
CC(C)c1ccccc1O	4.4	500 nM
CC(C)c1cccc(C(C)C)c1O [PROPOFOL]	5.7	230 nM
CC(C)(C)c1cc(O)cc(C(C)(C)C)c1	4	–
Oc1ccccc1 [PHENOL]	3	3800 nM
CCC(C)c1cccc(C(C)CC)c1O (centres undefined)	5.6	–
CC(C)c1cc(I)cc(C(C)C)c1O	5	–
CC(C)c1cc(O)c(O)c(C(C)C)c1	4.4	–
CCc1cccc(CC)c1O	4.9	310 nM

Source: ChEMBL document CHEMBL1155248, “Structure-based shape pharmacophore modeling for the discovery of novel anesthetic compounds” (Bioorg Med Chem, 2009)
